Nc1cc(C(F)(F)F)c(-c2nc(N3CCOCC3)nc(N3CCOCC3)n2)cn1 [Bimiralisib, 5-(4,6-dimorpholino-1,3,5-triazin-2-yl)-4-(trifluoromethyl)pyridin-2-amine]
Pneumonia aspiration, Grade 2, total number of events (n = 8): 0
Pneumonia aspiration, Grade 3/4, patients (n = 8): 2 (25.0) n (%)
Pneumonia aspiration, Grade 3/4, total number of events (n = 8): 2
Presyncope, Grade 1, patients (n = 8): 0 n (%)
Presyncope, Grade 1, total number of events (n = 8): 0
Presyncope, Grade 2, patients (n = 8): 1 (12.5) n (%)
Presyncope, Grade 2, total number of events (n = 8): 1
Presyncope, Grade 3/4, patients (n = 8): 0 n (%)
Presyncope, Grade 3/4, total number of events (n = 8): 0
Pruritus, Grade 1, patients (n = 8): 1 (12.5) n (%)
Pruritus, Grade 1, total number of events (n = 8): 1
Pruritus, Grade 2, patients (n = 8): 0 n (%)
Pruritus, Grade 2, total number of events (n = 8): 0
Pruritus, Grade 3/4, patients (n = 8): 0 n (%)
Pruritus, Grade 3/4, total number of events (n = 8): 0
Psychiatric disorders, Grade 1, patients (n = 8): 2 (25.0) n (%)
Psychiatric disorders, Grade 1, total number of events (n = 8): 2
Psychiatric disorders, Grade 2, patients (n = 8): 0 n (%)
Psychiatric disorders, Grade 2, total number of events (n = 8): 0
Psychiatric disorders, Grade 3/4, patients (n = 8): 0 n (%)
Psychiatric disorders, Grade 3/4, total number of events (n = 8): 0
Pyrexia, Grade 1, patients (n = 8): 1 (12.5) n (%)
Pyrexia, Grade 1, total number of events (n = 8): 1
Pyrexia, Grade 2, patients (n = 8): 0 n (%)
Pyrexia, Grade 2, total number of events (n = 8): 0
Pyrexia, Grade 3/4, patients (n = 8): 0 n (%)
Pyrexia, Grade 3/4, total number of events (n = 8): 0
Rash, Grade 1, patients (n = 8): 2 (25.0) n (%)
Rash, Grade 1, total number of events (n = 8): 2
Rash, Grade 2, patients (n = 8): 0 n (%)
Rash, Grade 2, total number of events (n = 8): 0
Rash, Grade 3/4, patients (n = 8): 0 n (%)
Rash, Grade 3/4, total number of events (n = 8): 0
Renal and urinary disorders, Grade 1, patients (n = 8): 1 (12.5) n (%)
Renal and urinary disorders, Grade 1, total number of events (n = 8): 1
Renal and urinary disorders, Grade 2, patients (n = 8): 0 n (%)
Renal and urinary disorders, Grade 2, total number of events (n = 8): 0
Renal and urinary disorders, Grade 3/4, patients (n = 8): 1 (12.5) n (%)
Renal and urinary disorders, Grade 3/4, total number of events (n = 8): 1
Renal injury, Grade 1, patients (n = 8): 0 n (%)
Renal injury, Grade 1, total number of events (n = 8): 0
Renal injury, Grade 2, patients (n = 8): 0 n (%)
Renal injury, Grade 2, total number of events (n = 8): 0
Renal injury, Grade 3/4, patients (n = 8): 1 (12.5) n (%)
Renal injury, Grade 3/4, total number of events (n = 8): 1
Respiratory, thoracic and mediastinal disorders, Grade 1, patients (n = 8): 1 (12.5) n (%)
Respiratory, thoracic and mediastinal disorders, Grade 1, total number of events (n = 8): 1
Respiratory, thoracic and mediastinal disorders, Grade 2, patients (n = 8): 0 n (%)
Respiratory, thoracic and mediastinal disorders, Grade 2, total number of events (n = 8): 0
Respiratory, thoracic and mediastinal disorders, Grade 3/4, patients (n = 8): 3 (37.5) n (%)
Respiratory, thoracic and mediastinal disorders, Grade 3/4, total number of events (n = 8): 4
Seizure, Grade 1, patients (n = 8): 1 (12.5) n (%)
Seizure, Grade 1, total number of events (n = 8): 1
Seizure, Grade 2, patients (n = 8): 0 n (%)
Seizure, Grade 2, total number of events (n = 8): 0
Seizure, Grade 3/4, patients (n = 8): 0 n (%)
Seizure, Grade 3/4, total number of events (n = 8): 0
Sepsis, Grade 3/4, total number of events (n = 8): 1
Skin and subcutaneous tissue disorders, Grade 1, patients (n = 8): 2 (25.0) n (%)
Skin and subcutaneous tissue disorders, Grade 1, total number of events (n = 8): 4
Skin and subcutaneous tissue disorders, Grade 2, patients (n = 8): 0 n (%)
Skin and subcutaneous tissue disorders, Grade 2, total number of events (n = 8): 0
Skin and subcutaneous tissue disorders, Grade 3/4, patients (n = 8): 0 n (%)
Skin and subcutaneous tissue disorders, Grade 3/4, total number of events (n = 8): 0
Skin infection, Grade 3/4, total number of events (n = 8): 1
Sunburn, Grade 1, patients (n = 8): 1 (12.5) n (%)
Sunburn, Grade 1, total number of events (n = 8): 1
Sunburn, Grade 2, patients (n = 8): 0 n (%)
Sunburn, Grade 2, total number of events (n = 8): 0
Sunburn, Grade 3/4, patients (n = 8): 0 n (%)
Sunburn, Grade 3/4, total number of events (n = 8): 0
Tinnitus, Grade 1, patients (n = 8): 1 (12.5) n (%)
Tinnitus, Grade 1, total number of events (n = 8): 1
Tinnitus, Grade 2, patients (n = 8): 0 n (%)
Tinnitus, Grade 2, total number of events (n = 8): 0
Tinnitus, Grade 3/4, patients (n = 8): 0 n (%)
Tinnitus, Grade 3/4, total number of events (n = 8): 0
Urinary tract discomfort, Grade 1, patients (n = 8): 1 (12.5) n (%)
Urinary tract discomfort, Grade 1, total number of events (n = 8): 1
Urinary tract discomfort, Grade 2, patients (n = 8): 0 n (%)
Urinary tract discomfort, Grade 2, total number of events (n = 8): 0
Urinary tract discomfort, Grade 3/4, patients (n = 8): 0 n (%)
Urinary tract discomfort, Grade 3/4, total number of events (n = 8): 0
Vascular disorders, Grade 1, patients (n = 8): 1 (12.5) n (%)
Vascular disorders, Grade 1, total number of events (n = 8): 1
Vascular disorders, Grade 2, patients (n = 8): 0 n (%)
Vascular disorders, Grade 2, total number of events (n = 8): 0
Vascular disorders, Grade 3/4, patients (n = 8): 1 (12.5) n (%)
Vascular disorders, Grade 3/4, total number of events (n = 8): 1
Vomiting, Grade 1, patients (n = 8): 0 n (%)
Vomiting, Grade 1, total number of events (n = 8): 0
Vomiting, Grade 2, patients (n = 8): 2 (25.0) n (%)
Vomiting, Grade 2, total number of events (n = 8): 2
Vomiting, Grade 3/4, patients (n = 8): 0 n (%)
Vomiting, Grade 3/4, total number of events (n = 8): 0
Wound infection, Grade 3/4, total number of events (n = 8): 0
Patients with at least one treatment-emergent AE (of 8): 8 patients
Nonfatal SAEs not related to bimiralisib (on-treatment period): 10
Time to normalization of grade 3 elevated alanine and aspartate aminotransferase after therapy discontinuation (patient 4, related to treatment): 28 days
